Key:
[1] = molecular target: cGMP-dependent 3',5'-cyclic phosphodiesterase (Homo sapiens, UniProt O00408); assay: Inhibition of PDE2 (unknown origin)
Homo sapiens [2] = species on record: Homo sapiens; assay: Selectivity ratio of IC50 for PDE4B (unknown origin) to IC50 for PDE2 (unknown origin)
[3] = molecular target: 3',5'-cyclic-AMP phosphodiesterase 4B (Homo sapiens, UniProt Q07343); assay: Inhibition of PDE4B (unknown origin)
in vitro = details: human, liver microsomes
[4] = molecular target: Phosphodiesterase 3 (Homo sapiens) (UniProt Q14432+Q13370); assay: Inhibition of PDE3 (unknown origin); assay type: protein assay
[5] = molecular target: cAMP and cAMP-inhibited cGMP 3',5'-cyclic phosphodiesterase 10A (Homo sapiens) (UniProt Q9Y233); assay: Inhibition of PDE10 (unknown origin)
[6] = molecular target: High affinity cGMP-specific 3',5'-cyclic phosphodiesterase 9A (Homo sapiens) (UniProt O76083); assay: Inhibition of PDE9 (unknown origin)
[7] = molecular target: Phosphodiesterase 1 (Homo sapiens) (UniProt P54750+Q01064+Q14123); assay: Inhibition of PDE1 (unknown origin); assay type: protein assay
[8] = Bioavailability in rat; assay type: ADME, organism-based; details: in vivo
Homo sapiens [9] = species on record: Homo sapiens; assay: Selectivity ratio of IC50 for PDE4 (unknown origin) to IC50 for PDE2 (unknown origin)
[10] = molecular target: Phosphodiesterase 8 (Homo sapiens) (UniProt O95263+O60658); assay: Inhibition of PDE8 (unknown origin); assay type: protein assay
Phosphodiesterase 4 = Phosphodiesterase 4 (Homo sapiens, UniProt P27815+Q08499+Q07343+Q08493); assay: Inhibition of PDE4 (unknown origin); assay type: protein assay
[11] = molecular target: Phosphodiesterase 6 (Homo sapiens) (UniProt Q13956+P18545+P35913+O43924+P16499+P51160); assay: Inhibition of PDE6 (unknown origin); assay type: protein assay
[12] = Half life in po dosed rat; assay type: ADME, organism-based; details: in vivo
[13] = molecular target: cGMP-specific 3',5'-cyclic phosphodiesterase (Homo sapiens) (UniProt O76074); assay: Inhibition of PDE5 (unknown origin)
[14] = molecular target: Dual 3',5'-cyclic-AMP and -GMP phosphodiesterase 11A (Homo sapiens) (UniProt Q9HCR9); assay: Inhibition of PDE11 (unknown origin)
[15] = Half life in iv dosed rat; assay type: ADME, organism-based; details: in vivo
[16] = molecular target: Phosphodiesterase 7 (Homo sapiens) (UniProt Q13946+Q9NP56); assay: Inhibition of PDE7 (unknown origin); assay type: protein assay
Sequence of Phosphodiesterase 7 (Homo sapiens) (Q13946 whole entry, looked up): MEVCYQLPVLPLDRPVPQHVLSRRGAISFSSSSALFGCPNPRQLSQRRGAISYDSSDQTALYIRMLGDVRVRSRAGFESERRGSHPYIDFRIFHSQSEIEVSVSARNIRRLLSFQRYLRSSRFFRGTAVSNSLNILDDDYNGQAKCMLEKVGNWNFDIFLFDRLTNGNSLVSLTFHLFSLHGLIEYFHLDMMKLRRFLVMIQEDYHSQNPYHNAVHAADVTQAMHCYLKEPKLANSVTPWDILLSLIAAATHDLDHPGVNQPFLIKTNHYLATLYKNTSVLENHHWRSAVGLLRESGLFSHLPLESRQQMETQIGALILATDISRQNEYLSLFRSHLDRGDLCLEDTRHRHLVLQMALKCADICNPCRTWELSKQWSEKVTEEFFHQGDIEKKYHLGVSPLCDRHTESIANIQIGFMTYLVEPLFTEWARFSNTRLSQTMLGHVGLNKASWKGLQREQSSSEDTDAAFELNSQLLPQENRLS
Sequence of Phosphodiesterase 7 (Homo sapiens) (Q9NP56 whole entry, looked up): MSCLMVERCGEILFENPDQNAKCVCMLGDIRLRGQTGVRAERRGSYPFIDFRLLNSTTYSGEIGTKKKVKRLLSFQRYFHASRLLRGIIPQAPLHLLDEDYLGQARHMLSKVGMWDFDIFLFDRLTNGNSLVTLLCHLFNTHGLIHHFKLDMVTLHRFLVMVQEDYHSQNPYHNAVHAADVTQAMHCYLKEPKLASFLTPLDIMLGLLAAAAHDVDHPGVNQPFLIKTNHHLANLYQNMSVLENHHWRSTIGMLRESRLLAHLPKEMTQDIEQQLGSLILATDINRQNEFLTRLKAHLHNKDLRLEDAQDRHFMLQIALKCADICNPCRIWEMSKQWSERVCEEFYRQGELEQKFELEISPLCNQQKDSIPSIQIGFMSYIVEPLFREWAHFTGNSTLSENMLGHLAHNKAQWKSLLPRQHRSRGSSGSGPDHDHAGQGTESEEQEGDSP

Sequence of 3',5'-cyclic-AMP phosphodiesterase 4B (Q07343 whole entry): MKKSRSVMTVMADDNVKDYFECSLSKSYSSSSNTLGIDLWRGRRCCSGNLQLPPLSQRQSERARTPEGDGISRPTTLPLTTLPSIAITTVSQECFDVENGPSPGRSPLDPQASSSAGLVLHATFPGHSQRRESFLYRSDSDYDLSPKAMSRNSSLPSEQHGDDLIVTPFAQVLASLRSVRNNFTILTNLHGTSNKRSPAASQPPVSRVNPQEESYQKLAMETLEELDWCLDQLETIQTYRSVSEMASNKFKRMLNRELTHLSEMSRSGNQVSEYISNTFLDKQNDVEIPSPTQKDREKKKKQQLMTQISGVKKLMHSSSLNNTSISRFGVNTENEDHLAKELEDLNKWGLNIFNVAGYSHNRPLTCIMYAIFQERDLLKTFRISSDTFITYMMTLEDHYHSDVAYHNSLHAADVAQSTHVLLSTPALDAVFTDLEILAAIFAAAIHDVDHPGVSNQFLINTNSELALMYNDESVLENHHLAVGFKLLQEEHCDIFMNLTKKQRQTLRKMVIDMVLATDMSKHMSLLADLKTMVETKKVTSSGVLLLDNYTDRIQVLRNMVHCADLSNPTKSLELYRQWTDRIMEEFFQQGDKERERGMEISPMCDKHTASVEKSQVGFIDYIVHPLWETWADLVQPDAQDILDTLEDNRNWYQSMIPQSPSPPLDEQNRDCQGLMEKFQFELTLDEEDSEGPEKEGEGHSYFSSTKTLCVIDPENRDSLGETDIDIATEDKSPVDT
Sequence of cGMP-dependent 3',5'-cyclic phosphodiesterase (O00408 whole entry): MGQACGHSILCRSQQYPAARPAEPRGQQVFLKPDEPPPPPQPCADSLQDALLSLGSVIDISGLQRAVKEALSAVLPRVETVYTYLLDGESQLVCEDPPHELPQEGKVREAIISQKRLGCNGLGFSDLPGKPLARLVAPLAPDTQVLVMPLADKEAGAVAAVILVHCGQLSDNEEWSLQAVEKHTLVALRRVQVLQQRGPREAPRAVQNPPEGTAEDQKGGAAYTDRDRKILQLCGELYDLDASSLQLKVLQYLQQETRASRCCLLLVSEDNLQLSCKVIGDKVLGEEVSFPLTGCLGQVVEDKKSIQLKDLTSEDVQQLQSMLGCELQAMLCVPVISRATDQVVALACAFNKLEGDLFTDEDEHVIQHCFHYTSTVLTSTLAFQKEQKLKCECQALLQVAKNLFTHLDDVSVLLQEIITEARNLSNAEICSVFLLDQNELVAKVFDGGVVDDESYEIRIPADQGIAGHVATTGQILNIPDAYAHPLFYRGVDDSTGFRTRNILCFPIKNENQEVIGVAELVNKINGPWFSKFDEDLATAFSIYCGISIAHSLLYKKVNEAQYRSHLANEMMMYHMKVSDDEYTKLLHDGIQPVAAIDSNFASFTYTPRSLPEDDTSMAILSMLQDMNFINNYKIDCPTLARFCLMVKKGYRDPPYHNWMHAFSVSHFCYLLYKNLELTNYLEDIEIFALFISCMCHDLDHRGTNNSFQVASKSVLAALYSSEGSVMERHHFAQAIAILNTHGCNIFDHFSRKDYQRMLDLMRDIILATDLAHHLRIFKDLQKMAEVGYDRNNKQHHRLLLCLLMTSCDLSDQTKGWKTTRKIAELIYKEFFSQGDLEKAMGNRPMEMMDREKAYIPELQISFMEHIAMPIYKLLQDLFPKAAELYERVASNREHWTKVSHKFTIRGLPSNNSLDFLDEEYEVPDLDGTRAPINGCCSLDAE
Sequence of cAMP and cAMP-inhibited cGMP 3',5'-cyclic phosphodiesterase 10A (Homo sapiens) (Q9Y233 whole entry): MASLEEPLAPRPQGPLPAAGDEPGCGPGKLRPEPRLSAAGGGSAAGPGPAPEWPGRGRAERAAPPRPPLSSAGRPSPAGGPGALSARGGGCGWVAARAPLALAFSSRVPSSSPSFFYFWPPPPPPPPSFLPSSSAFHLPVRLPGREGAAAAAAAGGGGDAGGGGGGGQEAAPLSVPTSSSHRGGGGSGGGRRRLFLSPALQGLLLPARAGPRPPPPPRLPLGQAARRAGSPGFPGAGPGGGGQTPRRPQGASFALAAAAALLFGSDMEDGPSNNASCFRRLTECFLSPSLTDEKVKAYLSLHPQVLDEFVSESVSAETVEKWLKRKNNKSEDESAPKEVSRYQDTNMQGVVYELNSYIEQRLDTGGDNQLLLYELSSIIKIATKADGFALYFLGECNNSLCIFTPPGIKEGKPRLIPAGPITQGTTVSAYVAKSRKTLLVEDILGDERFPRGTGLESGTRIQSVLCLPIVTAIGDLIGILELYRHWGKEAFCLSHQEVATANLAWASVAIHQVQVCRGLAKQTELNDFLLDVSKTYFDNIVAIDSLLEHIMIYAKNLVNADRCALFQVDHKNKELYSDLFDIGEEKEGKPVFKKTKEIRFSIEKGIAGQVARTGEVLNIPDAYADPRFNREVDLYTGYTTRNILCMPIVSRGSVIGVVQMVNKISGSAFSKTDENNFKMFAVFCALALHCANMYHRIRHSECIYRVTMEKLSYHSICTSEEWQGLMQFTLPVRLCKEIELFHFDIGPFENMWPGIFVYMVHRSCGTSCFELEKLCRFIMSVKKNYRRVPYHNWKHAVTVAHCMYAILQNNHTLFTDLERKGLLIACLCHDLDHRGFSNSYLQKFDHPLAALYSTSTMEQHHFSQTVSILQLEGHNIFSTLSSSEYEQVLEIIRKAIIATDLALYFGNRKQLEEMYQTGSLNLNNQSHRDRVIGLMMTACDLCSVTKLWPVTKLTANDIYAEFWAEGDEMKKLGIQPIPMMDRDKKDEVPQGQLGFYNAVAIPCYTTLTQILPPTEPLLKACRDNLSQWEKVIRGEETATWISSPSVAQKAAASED
Sequence of Dual 3',5'-cyclic-AMP and -GMP phosphodiesterase 11A (Homo sapiens) (Q9HCR9 whole entry, looked up): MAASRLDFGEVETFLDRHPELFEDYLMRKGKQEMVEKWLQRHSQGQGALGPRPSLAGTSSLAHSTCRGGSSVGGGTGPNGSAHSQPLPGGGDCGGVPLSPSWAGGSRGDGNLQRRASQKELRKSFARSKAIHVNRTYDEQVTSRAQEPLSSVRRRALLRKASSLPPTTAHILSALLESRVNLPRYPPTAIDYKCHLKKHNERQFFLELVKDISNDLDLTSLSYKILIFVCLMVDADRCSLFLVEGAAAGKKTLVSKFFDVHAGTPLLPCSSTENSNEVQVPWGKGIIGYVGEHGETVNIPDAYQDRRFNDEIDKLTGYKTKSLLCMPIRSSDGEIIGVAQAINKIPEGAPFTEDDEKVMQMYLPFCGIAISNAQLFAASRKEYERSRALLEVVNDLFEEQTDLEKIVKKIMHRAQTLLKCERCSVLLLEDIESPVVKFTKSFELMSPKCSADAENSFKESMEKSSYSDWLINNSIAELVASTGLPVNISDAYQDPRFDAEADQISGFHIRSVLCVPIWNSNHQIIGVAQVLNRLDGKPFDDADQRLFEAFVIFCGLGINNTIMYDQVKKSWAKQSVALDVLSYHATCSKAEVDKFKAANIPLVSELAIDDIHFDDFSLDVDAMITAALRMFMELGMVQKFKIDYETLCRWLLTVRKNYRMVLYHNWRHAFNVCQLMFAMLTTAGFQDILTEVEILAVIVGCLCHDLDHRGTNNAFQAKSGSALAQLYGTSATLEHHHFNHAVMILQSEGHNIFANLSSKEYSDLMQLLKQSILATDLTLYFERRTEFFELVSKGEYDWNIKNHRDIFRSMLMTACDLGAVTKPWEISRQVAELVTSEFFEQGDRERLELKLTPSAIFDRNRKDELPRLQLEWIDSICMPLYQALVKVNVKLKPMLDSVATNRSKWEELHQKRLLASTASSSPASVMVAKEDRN

Row | SMILES | IC50 [1] [nM] | Ratio IC50 (Homo sapiens [2]) | IC50 [3] [nM] | half-life (in vitro) [min] | Ratio IC50 (Homo sapiens [9]) | IC50 (Phosphodiesterase 4) [nM] | also measured
1 | CCC(C)(C)c1nn(CCO)c2c1N=C(c1ccc(-n3cc(C)nc3C)cc1)CNC2=O | 105 | 19 | 1950 | 9 |  |  | 
2 | CCC(CC)c1nn(CC)c2c1N=C(c1ccc(C(=O)O)cc1)CNC2=O | 840 |  |  |  | 0.0015 | 1.2 | INH [4]: > 5 µM; INH [5]: > 5 µM; INH [6]: > 5 µM; INH [7]: > 5 µM; bioavailability [8]: 80%; INH [10]: > 5 µM; INH [11]: > 5 µM; half-life [12]: 300 min; INH [13]: > 5 µM; INH [14]: > 5 µM; half-life [15]: 114 min; INH [16]: > 5 µM
3 | COc1ccc(Cc2nn3c([C@@H](CCc4ccccc4)[C@@H](C)O)nc(C)c3c(=O)[nH]2)cc1OO | 4.7 |  |  |  |  |  | 
4 | CCC(CC)c1nn(CCO)c2c1N=C(c1ccc(OC)c(OC)c1)CNC2=O | 23 |  |  | 23 | 2 | 48 | 
5 | CC(C)(C)c1nn(CCO)c2c1N=C(c1ccc(F)cc1)CNC2=O | 259 |  |  |  | 0.12 | 31 | 
6 | CCCCCC[C@@H]([C@@H](C)O)n1cnc2c(N)ncnc21 (relative stereo) [EHNA] | 800 |  |  |  |  |  | 
7 | CCC(CC)c1nn(CCO)c2c1N=C(c1ccccc1)CNC2=O | 102 |  |  | 20 | 0.7 | 76 | 
8 | CC(C)c1nccn1-c1ccc(C2=Nc3c(C(C)(C)C)nn(CCO)c3C(=O)NC2)cc1 | 97 | 3 | 330 | 12 |  |  | 

Second part, led by results:

Row | IC50 [1] [nM] | Ratio IC50 (Homo sapiens [2]) | IC50 [3] [nM] | half-life (in vitro) [min] | Ratio IC50 (Homo sapiens [9]) | IC50 (Phosphodiesterase 4) [nM] | SMILES | also measured
9 |  |  |  | 36 |  |  | CCC(CC)c1nn(CCCO)c2c1N=C(c1ccccc1)CNC2=O | 
10 | 328 |  |  | 6 | 33 | 10800 | CCC(CC)c1nn(CCCO)c2c1N=C(c1ccc(-n3ccnc3C)cc1)CNC2=O | 
11 | 45 | 8 | 378 | 7 |  |  | CCC(C)(C)c1nn(CCO)c2c1N=C(c1ccc(-n3ccnc3C)cc1)CNC2=O | 
12 | 93 |  |  | 44 | 4 | 365 | CCC(CC)c1nn(CCCO)c2c1N=C(c1ccc(OC)c(OC)c1)CNC2=O | 
13 | 54 | 11 | 583 | 5 | 11 | 538 | CCC(CC)c1nn(CCO)c2c1N=C(c1ccc(-n3ccnc3C)cc1)CNC2=O | 
